Reference: patent US12180226B2, “Spirotricycle RIPK1 inhibitors and methods of uses thereof” (Merck Sharp & Dohme LLC, priority 2021, dated 2024)
Where a name gives a salt, the structure may show the parent alone.

Target: RIPK1 (recombinant GST-RIPK1 kinase domain, residues 1-327) (Homo sapiens (Human), UniProt Q13546)
Test: RIPK1-ADP-Glo Enzymatic Assay
Assay type: biochemical
Settings: ADP-Glo; 25 nM GST-RIPK1, 300 μM ATP; assay lower limit ~25 nM; read-out: RIPK1 V0 Ec50
How it was run: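 Using dephosphorylated MBP (3 μM) as substrate and 300 μM ATP, 25 nM baculovirus-produced enzyme was reacted for 150 min after a 30-min compound pre-incubation. Luminescent ADP detection followed; lower confidence limit ~25 nM.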

Chain of RIPK1 (recombinant GST-RIPK1 kinase domain, residues 1-327) (Q13546 1-327): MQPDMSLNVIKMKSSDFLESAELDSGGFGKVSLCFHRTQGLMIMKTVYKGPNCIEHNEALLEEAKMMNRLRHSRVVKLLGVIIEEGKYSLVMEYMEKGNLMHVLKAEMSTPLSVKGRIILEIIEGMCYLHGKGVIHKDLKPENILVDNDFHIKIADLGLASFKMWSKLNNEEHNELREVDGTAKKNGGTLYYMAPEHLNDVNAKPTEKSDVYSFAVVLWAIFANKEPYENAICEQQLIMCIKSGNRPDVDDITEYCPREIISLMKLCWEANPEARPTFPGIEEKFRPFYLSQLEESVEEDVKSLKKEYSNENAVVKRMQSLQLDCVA

SMILES | EC50
O=C1N2[C@@H](CC[C@H]2c2cc(F)cc(F)c2)OC12CCN(c1ncc(F)c3ncnn13)CC2 [Example 4.90, (5′S,7a′R)-5′-(3,5-difluorophenyl)-1-(8-fluoro-[1,2,4]triazolo [1,5-c]pyrimidin-5-yl)tetrahydro-3′H-spiro[piperidine-4,2′-pyrrolo[2,1-b]oxazol]-3′-one, TFA salt] | 380 nM
Cc1ccncc1C(=O)N1CCC2(CC1)O[C@@H]1CC[C@@H](c3cc(F)cc(F)c3)N1C2=O [Example 6.51, (5′S,7a′R)-5′-(3,5-difluorophenyl)-1-(4-methylpyridine-3-carbonyl)tetrahydro-3′H-spiro[piperidine-4,2′-pyrrolo[2,1-b] [1,3]oxazol]-3′-one] | 600 nM
O=C(NC1(C(F)(F)F)CC1)c1nc(N2CCC3(CC2)O[C@@H]2CC[C@@H](c4cc(F)cc(F)c4)N2C3=O)ncc1F [Example 7.10, 2-[(5′S,7a′R)-5′-(3,5-difluorophenyl)-3′-oxotetrahydro-1H,3′H-spiro[piperidine-4,2′-pyrrolo[2,1-b][1,3]oxazol]-1-yl]-5-fluoro-N-[1-(trifluoromethyl)cyclo-propyl]pyrimidine-4-carboxamide] | 147 nM
O=C(c1ccccc1)N1CC2(C1)S[C@@H]1CC[C@@H](c3cc(F)cc(F)c3)N1C2=O [Example 1.25, (5′S,7a′R)-1-benzoyl-5′-(3,5-difluorophenyl)tetrahydro-3′H-spiro[azetidine-3,2′-pyrrolo[2,1-b]thiazol]-3′-one] | 98.3 nM
Cc1nnc(C(=O)N2CCC3(CC2)O[C@@H]2CC[C@@H](c4cc(F)cc(F)c4)N2C3=O)o1 [Example 5.76, (5′S,7a′R)-5′-(3,5-difluoro-phenyl)-1-(5-methyl-1,3,4-oxadiazole-2-carbonyl)-tetrahydro-3′H-spiro[piperi-dine-4,2′-pyrrolo[2,1-b] [1,3]oxazol]-3′-one] | 924 nM
O=C1N2C(CCC2c2cc(F)cc(F)c2)OC12CCN(c1cc(F)ccn1)CC2 (stereo not drawn) [Example 4.3, 5′-(3,5-difluorophenyl)-1-(4-fluoropyridin-2-yl)tetrahydro-3′H-spiro[piperidine-4,2′-pyrrolo[2,1-b] [1,3]oxazol]-3′-one] | < 25 nM
CC(C)(O)C#Cc1ccc(C(=O)N2CCC3(CC2)O[C@@H]2CC[C@@H](c4cc(F)cc(F)c4)N2C3=O)cc1 [Example 5.26, (5′S,7a′R)-5′-(3,5-difluoro-phenyl)-1-(4-(3-hydroxy-3-methylbut-1-yn-1-yl)-benzoyl)tetrahydro-3′H-spiro[piperidine-4,2′-pyrrolo[2,1-b]oxazol]-3′-one] | 737 nM
Cc1cc(F)c(C(=O)N2CCC3(CC2)O[C@@H]2CC[C@@H](c4cc(F)cc(F)c4)N2C3=O)cc1F [Example 5.6, (5′S,7a′R)-1-(2,5-difluoro-4-methylbenzene-1-carbonyl)-5′-(3,5-difluoro-phenyl)tetrahydro-3′H-spiro[piperidine-4,2′-pyrrolo[2,1-b][1,3]oxazol]-3′-one] | < 25 nM
O=C(c1ccccc1)N1CCC2(CC1)O[C@@H]1CC[C@@H](c3cnc4c(c3)CCC4)N1C2=O [Example 17.12, (5′S,7a′R)-1-benzoyl-5′-(6,7-dihydro-5H-cyclopenta[b]pyridin-3-yl)tetrahydro-3′H-spiro[piperidine-4,2′-pyrrolo[2,1-b]oxazol]-3′-one] | 342 nM
N#Cc1cnnc(N2CCC3(CC2)O[C@@H]2CC[C@@H](c4cc(F)cc(F)c4)N2C3=O)c1 [Example 4.19, 6-[(5′S,7a′R)-5′-(3,5-difluorophenyl)-3′-oxotetrahydro-1H,3′H-spiro[piperidine-4,2′-pyrrolo[2,1-b] [1,3]oxazol]-1-yl]pyridazine-4-carbonitrile] | 477 nM
N#Cc1cnc(N2CCC3(CC2)O[C@@H]2CC[C@@H](c4cc(F)cc(F)c4)N2C3=O)nc1 [Example 4.76, 2-[(5′S,7a′R)-5′-(3,5-difluorophenyl)-3′-oxotetrahydro-1H,3′H-spiro[piperidine-4,2′-pyrrolo[2,1-b] [1,3]oxazol]-1-yl]pyrimidine-5-carbonitrile] | 38.2 nM
N#Cc1ccc(C(=O)N2CCC3(CC2)O[C@@H]2CC[C@@H](c4cc(F)cc(F)c4)N2C3=O)c(Cl)c1 [Example 5.22, 3-chloro-4-((5′S,7a′R)-5′-(3,5-difluorophenyl)-3′-oxotetrahydro-3′H-spiro [piperidine-4,2′-pyrrolo-[2,1-b]oxazole]-1-carbon-yl)benzonitrile] | 392 nM
O=C(c1cc2ccccn2c1)N1CCC2(CC1)O[C@@H]1CC[C@@H](c3cc(F)cc(F)c3)N1C2=O [Example 5.73, (5′S,7a′R)-5′-(3,5-difluoro-phenyl)-1-(indolizine-2-carbonyl)tetrahydro-3′H-spiro[piperidine-4,2′-pyrrolo[2,1-b]oxazol]-3′-one] | < 25 nM
O=C(c1onc2ccccc12)N1CCC2(CC1)O[C@@H]1CC[C@@H](c3cc(F)cc(F)c3)N1C2=O [Example 6.50, (5′S,7a′R)-1-(2,1-benzoxazole-3-carbonyl)-5′-(3,5-difluorophenyl)tetra-hydro-3′H-spiro [piperidine-4,2′-pyrrolo[2,1-b][1,3]oxazol]-3′-one] | < 25 nM
Cc1nc(N2CCC3(CC2)O[C@@H]2CC[C@@H](c4cc(F)cc(F)c4)N2C3=O)ccc1C#N [Example 4.42, 6-[(5′S,7a′R)-5′-(3,5-difluorophenyl)-3′-oxotetrahydro-1H,3′H-spiro[piperidine-4,2′-pyrrolo[2,1-b] [1,3]oxazol]-1-yl]-2-methylpyridine-3-carbonitrile] | < 25 nM

Second part, the compound after the results:

EC50 | SMILES
37.6 nM | O=C1N2[C@@H](CC[C@H]2c2ccccc2)OC12CN(c1cccc3ncnn13)C2 [Example 13.22, (5′S,7a′R)-1-([1,2,4]triazolo[1,5-a]pyridin-5-yl)-5′-phenyltetrahydro-3′H-spiro[azetidine-3,2′-pyrrolo[2,1-b]oxazol]-3′-one, TFA salt]
< 25 nM | O=C1N2[C@H](CC[C@H]2c2cccc(F)c2)OC12CCN(c1ccnc3c(F)cnn13)CC2 [Example 4.15, (5′S,7a′S)-5′-(3-fluorophenyl)-1-(3-fluoropyrazolo[1,5-a]pyrimidin-7-yl)tetrahydro-3′H-spiro[piperidine-4,2′-pyrrolo[2,1-b] [1,3]oxazol]-3′-one]
< 25 nM | O=C1N2[C@H](OC13CCN(c1ccnc4c(F)cnn14)CC3)[C@@H](O)C[C@H]2c1ccccc1 [Example 4.271, (5′S,7′S,7a′R)-1-(3-fluoropyrazolo[1,5-a]pyrimidin-7-yl)-7′-hydroxy-5′-phenyltetrahydro-3′H-spiro[piperidine-4,2′-pyrrolo[2,1-b] [1,3]oxazol]-3′-one]
< 25 nM | O=C1N2[C@@H](CC[C@H]2c2cnccn2)OC12CCN(c1ccnc3c(F)cnn13)CC2 [Example 4.143, (5′S,7a′R)-1-(3-fluoropyrazolo[1,5-a]pyrimidin-7-yl)-5′-(pyrazin-2-yl)tetrahydro-3′H-spiro[piperidine-4,2′-pyrrolo[2,1-b] [1,3]oxazol]-3′-one]
< 25 nM | N#Cc1cncc([C@@H]2CC[C@H]3SC4(CCN(c5ccnc6c(F)cnn56)CC4)C(=O)N32)c1 [Example 4.112, 5-[(5′S,7a′R)-1-(3-fluoropyrazolo[1,5-a]pyrimidin-7-yl)-3′-oxotetrahydro-3′H-spiro[piperidine-4,2′-pyrrolo[2,1-b] [1,3]thiazol]-5′-yl]pyridine-3-carbonitrile]
761 nM | O=C1N2[C@@H](CC[C@H]2c2ccccc2)OC12CCN(c1cc(C3CC3)ccn1)CC2 [Example 11.22, (5′S,7a′R)-1-(4-cyclopropylpyridin-2-yl)-5′-phenyltetrahydro-3′H-spiro[piperidine-4,2′-pyrrolo[2,1-b][1,3]oxazol]-3′-one]
< 25 nM | CC1CN(c2ccnc3ccnn23)CCC12O[C@@H]1CC[C@@H](c3ccccc3)N1C2=O (stereo partly drawn) [Example 4.238, (4R,5′S,7a′R)-3-methyl-5′-phenyl-1-(pyrazolo[1,5-a]pyrimidin-7-yl)tetrahydro-3′H-spiro[piperidine-4,2′-pyrrolo[2,1-b] [1,3]oxazol]-3′-one]
31.1 nM | N#Cc1ccnc(N2CCC3(CC2)O[C@@H]2CC[C@@H](c4cccc(F)c4)N2C3=O)c1 [Example 4.54, 2-[(5′S,7a′R)-5′-(3-fluorophenyl)-3′-oxotetrahydro-1H,3′H-spiro[piperidine-4,2′-pyrrolo[2,1-b] [1,3]oxazol]-1-yl]pyridine-4-carbonitrile]
128 nM | CC(F)c1cc(N2CCC3(CC2)O[C@@H]2CC[C@@H](c4ccccc4)N2C3=O)ncn1 (stereo partly drawn) [Example 4.214, (5′S,7a′R)-1-[6-(1-fluoroethyl)pyrimidin-4-yl]-5′-phenyltetrahydro-3′H-spiro[piperidine-4,2′-pyrrolo[2,1-b] [1,3]oxazol]-3′-one]
< 25 nM | Cc1nccn1-c1cc(N2CCC3(CC2)O[C@@H]2CC[C@@H](c4ccccc4)N2C3=O)ncn1 [Example 4.175, (5′S,7a′R)-1-[6-(2-methyl-1H-imidazol-1-yl)pyrimidin-4-yl]-5′-phenyltetrahydro-3′H-spiro[piperidine-4,2′-pyrrolo[2,1-b] [1,3]oxazol]-3′-one]
< 25 nM | N#Cc1ccc(N2CCC3(CC2)S[C@@H]2CC[C@@H](c4ccccc4)N2C3=O)n2nccc12 [Example 4.145, 7-[(5′S,7a′R)-3′-oxo-5′-phenyltetrahydro-1H,3′H-spiro[piperidine-4,2′-pyrrolo[2,1-b] [1,3]thiazol]-1-yl]pyrazolo[1,5-a] pyridine-4-carbonitrile]
36.8 nM | O=C(c1ccccc1)N1CCC2(CC1)O[C@@H]1CC[C@@H](c3ccc(F)cc3)N1C2=O [Example 2.8, (5′S,7a′R)-1-benzoyl-5′-(4-fluorophenyl)tetrahydro-3′H-spiro[piperidine-4,2′-pyrrolo[2,1-b]oxazol]-3′-one]
